Each structure is given as a SMILES string. Activity calls are given as the source filed them. The rule behind the calls is not given here.

Data set [1] concerns MIA PaCa-2. As to the kind of experiment: Antiproliferative activity against human MIA PaCa-2 cells incubated for 6 days in presence of 10 uM (2S,4R)-1-((S)-2-(5-((4-(((R)-1-(3-amino-5-(trifluoromethyl)phenyl)ethyl)amino)-7-methoxy-2-methylquinazolin-6-yl)oxy)pentanamido)-3,3-dimethylbutanoyl)-4-hydroxy-N-(4-(4-methylthiazol-5-yl)benzyl)pyrrolidine-2-carboxamide by CCK8 assay. The data set is classed as functional, cell-based. The note with it: MIA PaCa-2, 144 h. (Tetrazolium dyes change colour on reduction, which living cells bring about.)

In data set [2] the test system is MIA PaCa-2. As to the kind of experiment: Antiproliferative activity against human MIA PaCa-2 cells incubated for 6 days by CCK8 assay. The data set is classed as functional, cell-based. The note with it: MIA PaCa-2, 144 h.
In data set [3] the test system is MIA PaCa-2. As to the kind of experiment: Inhibition of ERK phosphorylation in human MIA PaCa-2 cells at 100 nM after 24 to 72 hrs in presence of BI3406 by Western blotting analysis. The data set is classed as cell-based. The note with it: time 24-72 hrs.
Data set [4] deals with NCI-H358. In words: Inhibition of ERK phosphorylation in human NCI-H358 cells at 300 nM after 24 hrs. The data set is classed as cell-based.
In data set [5] the test system is MIA PaCa-2. In words: Inhibition of ERK phosphorylation in human MIA PaCa-2 cells at 300 nM after 24 hrs. The data set is classed as cell-based.
Data set [6] deals with SW837. In words: Antiproliferative activity against human SW837 cells incubated for 6 days by CCK8 assay. The data set is classed as functional, cell-based. The note with it: SW837, 144 h.
In data set [7] the test system is SW837. In words: Antiproliferative activity against human SW837 cells incubated for 6 days in presence of 10 uM (2S,4R)-1-((S)-2-(5-((4-(((R)-1-(3-amino-5-(trifluoromethyl)phenyl)ethyl)amino)-7-methoxy-2-methylquinazolin-6-yl)oxy)pentanamido)-3,3-dimethylbutanoyl)-4-hydroxy-N-(4-(4-methylthiazol-5-yl)benzyl)pyrrolidine-2-carboxamide by CCK8 assay. The data set is classed as functional, cell-based. The note with it: SW837, 144 h.

In data set [8] the test system is NCI-H358. As to the kind of experiment: Upregulation of SOS1 protein in human NCI-H358 cells. The data set is classed as functional, cell-based.
The test system of data set [9] is MIA PaCa-2. As to the kind of experiment: Antiproliferative activity against human MIA PaCa-2 cells incubated for 6 days in presence of 1 uM (2S,4R)-1-((S)-2-(5-((4-(((R)-1-(3-amino-5-(trifluoromethyl)phenyl)ethyl)amino)-7-methoxy-2-methylquinazolin-6-yl)oxy)pentanamido)-3,3-dimethylbutanoyl)-4-hydroxy-N-(4-(4-methylthiazol-5-yl)benzyl)pyrrolidine-2-carboxamide by CCK8 assay. The data set is classed as functional, cell-based. The note with it: MIA PaCa-2, 144 h.

For data set [10], the system named is MIA PaCa-2. In words: Inhibition of RAS pathway in SOS1 knockout human MIA PaCa-2 cells at 100 nM. The data set is classed as cell-based.
For data set [11], the system named is SW837. In words: Antiproliferative activity against human SW837 cells incubated for 6 days in presence of 1 uM (2S,4R)-1-((S)-2-(5-((4-(((R)-1-(3-amino-5-(trifluoromethyl)phenyl)ethyl)amino)-7-methoxy-2-methylquinazolin-6-yl)oxy)pentanamido)-3,3-dimethylbutanoyl)-4-hydroxy-N-(4-(4-methylthiazol-5-yl)benzyl)pyrrolidine-2-carboxamide by CCK8 assay. The data set is classed as functional, cell-based. The note with it: SW837, 144 h.

The subject of data set [12] is NCI-H358. In words: Antiproliferative activity against human NCI-H358 cells incubated for 6 days by CCK8 assay. The data set is classed as functional, cell-based. As to conditions: NCI-H358, 144 h.
Data set [13] is described as follows: Stability in human MIA PaCa-2 cells assessed as compound remaining at 0.2 mM after 72 hrs by HPLC analysis. As to conditions: read-out: Stability. The data set is classed as ADME, cell-based.
The subject of data set [14] is NCI-H358. As to the kind of experiment: Antiproliferative activity against human NCI-H358 cells incubated for 6 days in presence of 1 uM (2S,4R)-1-((S)-2-(5-((4-(((R)-1-(3-amino-5-(trifluoromethyl)phenyl)ethyl)amino)-7-methoxy-2-methylquinazolin-6-yl)oxy)pentanamido)-3,3-dimethylbutanoyl)-4-hydroxy-N-(4-(4-methylthiazol-5-yl)benzyl)pyrrolidine-2-carboxamide by CCK8 assay. The note with it: NCI-H358, 144 h. The data set is classed as functional, cell-based.

The subject of data set [15] is NCI-H358. In words: Antitumor activity against human NCI-H358 cells xenografted in BALB/c mouse assessed as tumor growth inhibition at 10 mg/kg, ip administered once daily for 28 days. The data set is classed as functional. As to conditions: NCI-H358, 672 h, time 28 day, read-out: TGI. A general note: A xenograft is tissue or cells of one species grown in another, often human tumour cells in immunodeficient mice.

Data set [16] in a line: Stability in human NCI-H358 cells assessed as compound remaining at 0.2 mM after 72 hrs by HPLC analysis. The data set is classed as ADME, cell-based. The note with it: read-out: Stability.
Data set [17] relates to NCI-H358. In words: Antiproliferative activity against human NCI-H358 cells incubated for 6 days in presence of 10 uM (2S,4R)-1-((S)-2-(5-((4-(((R)-1-(3-amino-5-(trifluoromethyl)phenyl)ethyl)amino)-7-methoxy-2-methylquinazolin-6-yl)oxy)pentanamido)-3,3-dimethylbutanoyl)-4-hydroxy-N-(4-(4-methylthiazol-5-yl)benzyl)pyrrolidine-2-carboxamide by CCK8 assay. The data set is classed as functional, cell-based. As to conditions: NCI-H358, 144 h.

Data set [18] relates to MIA PaCa-2. As to the kind of experiment: Upregulation of SOS1 protein in human MIA PaCa-2 cells. The data set is classed as functional, cell-based.
Data set [19] relates to NCI-H358. In words: Inhibition of RAS pathway in SOS1 knockout human NCI-H358 cells at 100 nM. The data set is classed as cell-based.

In general, IC50 refers to the concentration needed to halve the response being measured. `C=CC(=O)N1CCN(c2nc(=O)n(-c3c(C)ccnc3C(C)C)c3nc(-c4c(O)cccc4F)c(F)cc23)[C@@H](C)C1` [SOTORASIB]: the IC50 is 6 nM in data set [1]; 37 nM in data set [2]; 9 nM in [6]; 2 nM in data set [7]; 13 nM in data set [9]; 3 nM in data set [11]. The IC50 in data set [12] is 10 nM; in data set [14], 4 nM; in [17], 1 nM. Also, the inhibition entry in [3], in data set [4], in [5], in data set [10] and in data set [19] was “Active” in each case. The outcome in [8] and in data set [18] was Active. Moreover, the remaining at 72 h, 200 µM in [13] and in data set [16] was over 70% in each case. Further, the inhibition in vivo at 10 mg/kg in data set [15] is 34.9%.
